Article PMC10289903 (Investigational New Drugs, 2023)
Like-named read-outs stand apart in the source and are kept apart here.

Tested on: patients with locally advanced or metastatic solid tumors
Description: This was a Phase Ib, multicenter, open-label, dose-finding clinical trial (NCT02610075). […] Three types of treatment schedules were investigated: cohorts bid 1, bid 2, qd 1.1, qd 2.1 and qd 3.1 received bid or qd treatment on a 5/9 schedule (5 days on treatment, followed by 9 days off) on a 14-day cycle. Cohorts qd 1.2, qd 2.2, and qd 3.2 received treatment on a 5/2 schedule (5 days on followed by 2 days off for 2 of 3 weeks) in a 21-day cycle. Cohorts qd 2.3 and qd 3.3 received treatment on a weekly 5/2 schedule in a 21-day cycle (Table 1). The highest dose level(s) at which less than one-third of evaluable patients (none of 3 patients or 1 of 6 patients) experienced a dose-limiting toxicity (DLT) was declared the MTD.
The per protocol analysis set was defined as a subset of the full analysis set, excluding subjects having an important protocol deviation, to be used for analyses of efficacy endpoints if appropriate.

C=CCn1c(=O)c2cnc(Nc3ccc(N4CCN(C)CC4)cc3)nc2n1-c1cccc(C(C)(C)O)n1 [adavosertib, Adavosertib]
Asthenia (treatment-emergent AE) (human, in vivo): 10 (16.1) n (%) | Back pain (treatment-emergent AE) (human, in vivo): 13 (21.0) n (%) | Constipation (treatment-emergent AE) (human, in vivo): 15 (24.2) n (%) | Cough (treatment-emergent AE) (human, in vivo): 9 (14.5) n (%) | Decreased appetite (treatment-emergent AE) (human, in vivo): 14 (22.6) n (%) | Decreased appetite (treatment-related AE) (human, in vivo): 11 (17.7) n (%) | Dehydration (treatment-related AE) (human, in vivo): 11 (17.7) n (%) | Dehydration leading to dose interruption, patients (human, in vivo): 4 (6.5%) n (%) | Diarrhea leading to dose interruption, patients (human, in vivo): 4 (6.5%) n (%) | Dizziness (treatment-emergent AE) (human, in vivo): 14 (22.6) n (%) | Dyspepsia (treatment-emergent AE) (human, in vivo): 8 (12.9) n (%) | Dyspnea (treatment-emergent AE) (human, in vivo): 9 (14.5) n (%) | Edema peripheral (treatment-emergent AE) (human, in vivo): 16 (25.8) n (%) | Fall (treatment-emergent AE) (human, in vivo): 9 (14.5) n (%) | Fatigue leading to dose interruption, patients (human, in vivo): 4 (6.5%) n (%) | Headache (treatment-emergent AE) (human, in vivo): 8 (12.9) n (%) | Hypokalemia (treatment-emergent AE) (human, in vivo): 11 (17.7) n (%) | Muscle spasms (treatment-emergent AE) (human, in vivo): 8 (12.9) n (%) | Myalgia (treatment-emergent AE) (human, in vivo): 12 (19.4) n (%) | Myalgia (treatment-related AE) (human, in vivo): 9 (14.5) n (%) | Neutropenia (treatment-emergent AE) (human, in vivo): 10 (16.1) n (%) | Neutropenia (treatment-related AE) (human, in vivo): 9 (14.5) n (%) | Neutropenia leading to dose reduction, patients (human, in vivo): 4 (6.5%) n (%) | Number of treatment-related serious AEs (human, in vivo): 10 | Patients with serious AEs (human, in vivo): 25 (40.3%) n (%) | Pyrexia (treatment-emergent AE) (human, in vivo): 10 (16.1) n (%) | Thrombocytopenia (treatment-emergent AE) (human, in vivo): 10 (16.1) n (%) | Thrombocytopenia (treatment-related AE) (human, in vivo): 10 (16.1) n (%) | Thrombocytopenia leading to dose interruption, patients (human, in vivo): 4 (6.5%) n (%) | Thrombocytopenia leading to dose reduction, patients (human, in vivo): 5 (8.1%) n (%) | Treatment-related SAE: anemia (human, in vivo): 1 [1.6%] n [%] | Treatment-related SAE: dehydration (human, in vivo): 2 [3.2%] n [%] | Treatment-related SAE: febrile neutropenia (human, in vivo): 1 [1.6%] n [%] | Urinary tract infection (treatment-emergent AE) (human, in vivo): 9 (14.5) n (%) | Vomiting (treatment-emergent AE) (human, in vivo): 16 (25.8) n (%) | Vomiting (treatment-related AE) (human, in vivo): 14 (22.6) n (%) | Number of serious AEs (SAEs) reported (in vivo): Fifty | Abdominal pain (treatment-emergent AE) (qd 1.1: 200 mg qd 5/9 (n=5)): 1 (20.0) n (%) | Abdominal pain (treatment-related AE) (qd 1.1: 200 mg qd 5/9 (n=5)): 0 n (%) | Alanine aminotransferase increased (treatment-emergent AE) (qd 1.1: 200 mg qd 5/9 (n=5)): 2 (40.0) n (%) | Anemia (treatment-emergent AE) (qd 1.1: 200 mg qd 5/9 (n=5)): 0 n (%) | Anemia (treatment-related AE) (qd 1.1: 200 mg qd 5/9 (n=5)): 0 n (%) | Any AE (treatment-emergent) (qd 1.1: 200 mg qd 5/9 (n=5)): 5 (100) n (%) | Any grade ≥ 3 AE (qd 1.1: 200 mg qd 5/9 (n=5)): 1 (20.0) n (%) | Any treatment-related AE (qd 1.1: 200 mg qd 5/9 (n=5)): 5 (100) n (%) | Any treatment-related grade ≥ 3 AE (qd 1.1: 200 mg qd 5/9 (n=5)): 1 (20.0) n (%) | Asthenia (treatment-emergent AE) (qd 1.1: 200 mg qd 5/9 (n=5)): 2 (40.0) n (%) | Asthenia (treatment-related AE) (qd 1.1: 200 mg qd 5/9 (n=5)): 2 (40.0) n (%) | Back pain (treatment-emergent AE) (qd 1.1: 200 mg qd 5/9 (n=5)): 0 n (%) | Constipation (treatment-emergent AE) (qd 1.1: 200 mg qd 5/9 (n=5)): 1 (20.0) n (%) | Constipation (treatment-related AE) (qd 1.1: 200 mg qd 5/9 (n=5)): 1 (20.0) n (%) | Cough (treatment-emergent AE) (qd 1.1: 200 mg qd 5/9 (n=5)): 0 n (%) | Decreased appetite (treatment-emergent AE) (qd 1.1: 200 mg qd 5/9 (n=5)): 0 n (%) | Decreased appetite (treatment-related AE) (qd 1.1: 200 mg qd 5/9 (n=5)): 0 n (%) | Dehydration (treatment-emergent AE) (qd 1.1: 200 mg qd 5/9 (n=5)): 0 n (%) | Dehydration (treatment-related AE) (qd 1.1: 200 mg qd 5/9 (n=5)): 0 n (%) | Diarrhea (treatment-emergent AE) (qd 1.1: 200 mg qd 5/9 (n=5)): 1 (20.0) n (%) | Diarrhea (treatment-related AE) (qd 1.1: 200 mg qd 5/9 (n=5)): 1 (20.0) n (%)
